Values quoted from earlier work in article PMC4333608 (Chemical Science, 2014).

Biological target: T1, São Paulo metallo-β-lactamase-1 (SPM-1) (Pseudomonas aeruginosa, UniProt Q8G9Q0)
T1 sequence (Q8G9Q0 29-276): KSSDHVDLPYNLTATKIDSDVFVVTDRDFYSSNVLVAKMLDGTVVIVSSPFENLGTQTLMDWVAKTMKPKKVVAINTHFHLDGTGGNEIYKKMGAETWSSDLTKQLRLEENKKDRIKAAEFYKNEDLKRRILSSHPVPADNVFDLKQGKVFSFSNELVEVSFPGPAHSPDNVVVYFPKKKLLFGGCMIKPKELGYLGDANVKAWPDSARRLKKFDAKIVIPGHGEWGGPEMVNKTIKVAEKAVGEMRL
Assay: enzyme inhibition IC50
Format: biochemical

In the case of `O=C(O)c1cc(CS)cc(CS)c1` [3,5-bis(mercaptomethyl)benzoic acid], the IC50 is listed as 700 nM.
